In patent publication US20080045519A1, “Method to Fight Against Insects Including the Use of Hydrocarbon Compounds” (priority 2004, published 2008):
Several values for one entry are separate records, joined by “and”; a condition that tells them apart may be missing. Identical values can stand only once.

Tested on: worker termites of Reticulitermes santonensis type
Test: Insecticidal activity of fipronil plus hydrocarbon compound mixture, termite mortality after 3 days (Example 4)
Format: in vivo
Conditions: matrix sprayed with hydrocarbon compound mixture (Mixture B), 100 termites
Procedure: The experiment is conducted in a LAB test box (6 cm×9 cm) containing on the bottom 2 mm of wet Fontainebleau sand and is repeated five times. In the box, a matrix is placed, consisting of a foam cube in which holes are made with a diameter of 5 mm, over which a small piece of poplar wood is placed (1 cm×2 cm×2 cm). The foam is impregnated with cold fipronil. The matrix is sprayed with a hydrocarbon compound mixture including 11.4% of 5-methylpentacosane; 36.3% of 11-methylpentacosane; 19.6% of (Z)-9-pentacosene; 27.7% of n-pentacosane, and 5% of n-hexacosane. Only 4 faces are sprayed. The top and the bottom of the matrix are not treated.
In the box, an untreated piece of poplar wood is also placed in order to recreate a natural situation as exactly as possible.
100 worker termites of Reticulitermes santonensis type are placed in the box and their mortality after 3 days is evaluated. Various concentrations of cold fipronil are tested: 0.5 ppm, 1 ppm, 2 ppm, 5 ppm, and 7 ppm.

Compound: N#Cc1nn(-c2c(Cl)cc(C(F)(F)F)cc2Cl)c(N)c1[S+]([O-])C(F)(F)F (stereo not drawn) [Fipronil, fipronil]
- Number of termites dead after 3 days (fipronil at 0.5 ppm, average of 5 trials): 0
- Number of termites dead after 3 days (fipronil at 0.5 ppm, single trials): 0
- Number of termites dead after 3 days (fipronil at 1 ppm, average of 5 trials): 0
- Number of termites dead after 3 days (fipronil at 1 ppm, single trials): 0
- Number of termites dead after 3 days (fipronil at 2 ppm, average of 5 trials): 20
- Number of termites dead after 3 days (fipronil at 5 ppm, average of 5 trials): 50.4
- Number of termites dead after 3 days (fipronil at 5 ppm, single trials): 42 and 45 and 59 and 56 and 50
- Number of termites dead after 3 days (fipronil at 7 ppm, average of 5 trials): 50.8
- Number of termites dead after 3 days (fipronil at 7 ppm, single trials): 60 and 42 and 55 and 34 and 63
